Experiments:
[1] = target: α1G T-type calcium channel (Homo sapiens, UniProt O43497); assay: Assay for T-type calcium channel inhibition activity (FDSS6000 calcium imaging, KCl activation); type: cell-based; conditions: 75 s pre-treatment then KCl 75 mM, HEK293 cells expressing α1G T-type calcium channel and Kir2.1
Procedure: At 12-24 hours before the assay for T-type calcium channel activity, cells of HEK293 cell line (α1G cell line: KCTC 10519BP, GenBank, Korea Research Institute of Bioscience and Biotechnology) which stably express α1G T-type calcium channel and Kir2.1, were sub-cultured in a poly-L-lysine (0.05 mg/ml) treated 96-well plate with the density of 4×10^4 per a well using a 96-well cell dispenser (Titertek). On the day of assay, the 96-well plate to which the cells were attached were washed three times with a HEPES buffer solution (unit mM: 150 NaCl, 5 KCl, 1 MgCl2, 2 CaCl2, 10 HEPES, 10 glucose, pH 7.4) using a 96-well plate automatic washing device (Bio Tek), and then reacted with a HEPES buffer solution containing 5 μM fluo-3/AM and 0.001% (w/v) Pluronic F-127 at room temperature for 1 hour, to label with fluorescent dye, and then further washed twice with the HEPES buffer solution. Thereafter, at 10 minutes before the measurement using a FDSS6000 device, a washing with a HEPES buffer solution containing 10 mM CaCl2 was conducted once more, and the final volume was adjusted to 81 μl. Besides the above 96-well plate containing the cells, additional two 96-well drug plates were provided, in which the 96-well plates contained KCl (final concentration: 75 mM) for activating T-type calcium channel and a blocker drug, respectively.
Since most of cell-based HTS (High throughput screening) devices are equipped with a liquid application system for drug injection, but have no liquid sucking system, the blocker drug to be tested and KCl were respectively provided at the five-times higher concentration in 10 mM CaCl2 HEPES buffer solution at the amount of 27 μl, diluted five-times at the final cell plate volume of 135 μl, and then used in this test. In this Experimental Example, therefore, FDSS6000 (Hamamatsu Photonics) was used as an alternative to HTS device.
Specific FDSS6000 measurement conditions are as follows: After recording the reference value of 20 seconds, the change of intracellular calcium concentration which induced by pre-treatment of the drug (the prepared […]) for 75 seconds followed by administration of KCl was measured, in which the percentage (%) inhibition effect of the test drug was determined, through estimating the area of ratio value of 340/380 in the control without treatment of the test drug as 100%. As a reference drug, 10 μM of mibefradil was always used.
For accurate calcium-imagination, the light sources of 4 xenon lamps in FDSS6000 were radiated to make the cells exposed selectively to the excitation wavelength (340 nm and 380 nm) by computer-controlled filter wheel. Data was obtained at interval of each 1.23 second. The emitter fluorescence light inflow through a 515 nm long-pass filter was obtained as an average 340/380 ratio value for each well in the 96-wells by a cooled CCD camera and digital fluorescence analyzer in the device. All image data and analysis were obtained by using a FDSS6000-exclusive program provided by Hamamatsu Photonics, as described above.

TREK-1 channel = target: T1, TREK-1 channel (Rattus norvegicus, UniProt Q920B6); assay: Assay for TREK channel inhibition activity (whole cell patch clamp recording, COS7 cell transfected with GFP-rTREK-1); type: cell-based; conditions: COS7 cells, GFP-rTREK-1, whole-cell patch clamp; for inhibition at 101 µM: COS-7, Table 3 (value ± spread), 101 μM [sic], read-out: block % at 101 μM; for inhibition at 10 µM: COS-7, Table 2, read-out: block % at 10 μM
T1 construct: expressed in transfected cells; host or cells: COS7 (Korean Cell Line Bank), transient transfection with Effectene
T1 sequence (Q920B6 1-426): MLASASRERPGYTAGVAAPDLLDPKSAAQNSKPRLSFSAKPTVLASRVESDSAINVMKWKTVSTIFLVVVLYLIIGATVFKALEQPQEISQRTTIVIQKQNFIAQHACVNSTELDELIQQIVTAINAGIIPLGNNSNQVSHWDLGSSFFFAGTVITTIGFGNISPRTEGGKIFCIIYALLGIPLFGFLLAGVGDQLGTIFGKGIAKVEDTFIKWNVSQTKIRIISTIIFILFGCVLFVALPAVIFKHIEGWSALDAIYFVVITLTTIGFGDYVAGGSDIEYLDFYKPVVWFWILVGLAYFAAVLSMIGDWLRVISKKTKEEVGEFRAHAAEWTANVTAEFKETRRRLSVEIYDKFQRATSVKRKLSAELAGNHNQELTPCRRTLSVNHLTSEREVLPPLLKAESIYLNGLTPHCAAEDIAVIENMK
Procedure: The inhibition activity of the compound of the present invention against TREK-1 channel was measured by measuring the physiological activity by whole cell patch clamp recording.
COS7 cell (obtained from Korean Cell Line Bank (KCLB)) was transfected with GFP-rTREK-1 gene (accession number: AY727922) using an Effectene transfection reagent (Qiagen), and cultured for 24 hours in an incubator at 37° C. As a culture medium, Dulbecco's modified Eagle's medium (DMEM, GIBCO products from Invitrogen) containing 10% by weight of fetal bovine serum (FBS) and 1% by weight of penicillin/streptomycin (5000 unit/ml) was used. The cells thus prepared were adhered on a cover glass, which was placed on a chamber, and then a recording solution (150 mM NaCl, 10 mM HEPES, 10 mM KCl, 2 mM CaCl2, 5.5 mM D-Glucose, all reagents were purchased from Sigma) was applied. A glass microelectrode was filled with an intracellular solution prepared with the composition of 150 mM KCl, 5 mM EGTA, 10 mM HEPES, 0.5 mM CaCl2, 1 mM MgCl2, 4 mM Mg-ATP, and 0.3 mM Na-GTP (all reagents were purchased from Sigma), followed by whole-cell patch clamp recording. The voltage was fixed at −70 mV using a Digidata 1322A data acquisition system (Molecular Devices) and an Axopatch 200A amplifier (Axon Instruments), and the current generated by applying a voltage ramp from −100 mV to +100 mV for 1 second was measured using a Clampex9.2 program. A difference between the current values measured at +100 mV and −100 mV was defined as a current in the above experiment. The currents before and after blocker treatment were measured so as to determine the inhibition activity.
Block %=100−(current after blocker treatment/current before blocker treatment)*100

Sequence of α1G T-type calcium channel (O43497 whole entry): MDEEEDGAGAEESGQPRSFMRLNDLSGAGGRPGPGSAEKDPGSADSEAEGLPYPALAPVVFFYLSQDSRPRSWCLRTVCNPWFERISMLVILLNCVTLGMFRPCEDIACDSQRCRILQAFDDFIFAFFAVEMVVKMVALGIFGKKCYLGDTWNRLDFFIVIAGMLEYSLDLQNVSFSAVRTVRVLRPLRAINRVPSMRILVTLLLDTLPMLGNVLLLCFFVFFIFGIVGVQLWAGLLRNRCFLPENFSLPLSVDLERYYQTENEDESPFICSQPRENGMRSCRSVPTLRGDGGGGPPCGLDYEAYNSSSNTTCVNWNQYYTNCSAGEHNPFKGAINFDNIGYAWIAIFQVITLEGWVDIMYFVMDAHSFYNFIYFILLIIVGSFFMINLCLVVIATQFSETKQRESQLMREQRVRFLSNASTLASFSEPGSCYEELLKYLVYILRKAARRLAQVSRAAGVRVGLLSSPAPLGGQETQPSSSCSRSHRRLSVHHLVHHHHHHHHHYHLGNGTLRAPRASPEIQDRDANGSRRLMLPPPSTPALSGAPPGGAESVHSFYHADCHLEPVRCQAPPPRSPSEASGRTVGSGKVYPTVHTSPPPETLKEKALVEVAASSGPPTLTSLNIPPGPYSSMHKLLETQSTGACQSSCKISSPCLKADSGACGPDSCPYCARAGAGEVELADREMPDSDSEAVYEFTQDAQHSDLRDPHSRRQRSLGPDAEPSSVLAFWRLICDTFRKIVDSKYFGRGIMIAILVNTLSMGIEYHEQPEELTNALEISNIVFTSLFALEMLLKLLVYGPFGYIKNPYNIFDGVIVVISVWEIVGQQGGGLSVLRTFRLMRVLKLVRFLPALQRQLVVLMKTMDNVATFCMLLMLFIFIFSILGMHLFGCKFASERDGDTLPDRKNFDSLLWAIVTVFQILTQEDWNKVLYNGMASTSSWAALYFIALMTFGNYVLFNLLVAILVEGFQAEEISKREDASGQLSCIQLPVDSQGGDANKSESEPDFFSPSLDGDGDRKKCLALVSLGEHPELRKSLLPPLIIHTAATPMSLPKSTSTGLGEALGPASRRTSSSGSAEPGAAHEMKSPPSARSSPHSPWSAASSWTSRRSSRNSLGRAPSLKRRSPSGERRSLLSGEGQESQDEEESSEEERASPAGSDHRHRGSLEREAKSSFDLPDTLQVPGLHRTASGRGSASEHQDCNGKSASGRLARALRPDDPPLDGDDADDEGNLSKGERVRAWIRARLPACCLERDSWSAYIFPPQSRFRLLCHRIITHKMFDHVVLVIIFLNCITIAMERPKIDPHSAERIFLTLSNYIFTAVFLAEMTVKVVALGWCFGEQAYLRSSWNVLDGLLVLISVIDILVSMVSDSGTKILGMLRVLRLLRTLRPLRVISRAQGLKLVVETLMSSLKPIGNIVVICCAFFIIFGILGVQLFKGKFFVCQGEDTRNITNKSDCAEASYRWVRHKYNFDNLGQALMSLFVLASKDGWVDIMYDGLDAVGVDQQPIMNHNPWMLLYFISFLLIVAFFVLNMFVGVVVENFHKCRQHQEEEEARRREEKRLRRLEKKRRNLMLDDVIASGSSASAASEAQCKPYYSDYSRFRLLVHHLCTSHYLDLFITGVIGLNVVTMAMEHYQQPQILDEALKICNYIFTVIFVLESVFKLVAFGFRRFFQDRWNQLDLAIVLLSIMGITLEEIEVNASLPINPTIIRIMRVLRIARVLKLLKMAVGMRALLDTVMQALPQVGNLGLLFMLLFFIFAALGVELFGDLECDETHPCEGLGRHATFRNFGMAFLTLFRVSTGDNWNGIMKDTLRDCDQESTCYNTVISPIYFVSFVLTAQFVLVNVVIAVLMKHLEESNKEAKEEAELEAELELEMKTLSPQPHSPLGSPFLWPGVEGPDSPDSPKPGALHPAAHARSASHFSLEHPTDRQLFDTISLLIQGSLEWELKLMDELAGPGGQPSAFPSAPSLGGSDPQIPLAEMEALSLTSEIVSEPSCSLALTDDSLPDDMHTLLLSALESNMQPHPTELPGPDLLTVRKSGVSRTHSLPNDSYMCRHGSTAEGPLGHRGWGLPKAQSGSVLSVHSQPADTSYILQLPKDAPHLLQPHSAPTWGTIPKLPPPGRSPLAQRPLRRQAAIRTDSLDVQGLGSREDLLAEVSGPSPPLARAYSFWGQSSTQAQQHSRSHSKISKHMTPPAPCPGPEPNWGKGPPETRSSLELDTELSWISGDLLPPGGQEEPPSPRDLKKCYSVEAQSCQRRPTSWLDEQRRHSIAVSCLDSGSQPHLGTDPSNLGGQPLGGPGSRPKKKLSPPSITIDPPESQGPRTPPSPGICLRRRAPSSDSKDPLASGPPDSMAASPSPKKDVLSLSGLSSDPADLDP

| SMILES | inhibition [1] | inhibition at 101 µM (TREK-1 channel) | inhibition at 10 µM (TREK-1 channel) | block % at 100 μM (TREK-1 channel; Table 2) | block % at 100 μM (TREK-1 channel; Table 3 (value ± spread)) |
| --- | --- | --- | --- | --- | --- |
| Cc1ccc(CNC(=O)CN2CCN(C[C@H](O)COc3ccc(C)cc3)CC2)cc1 [KKRE10199, (S)-2-(4-(2-hydroxy-3-(p-tolyloxy)propyl)piperazin-1-yl)-N-(4-methylbenzyl)acetamide] | 33.9% | 11 ± 2.58% | – | – | – |
| Cc1ccc(OC[C@H](O)CN2CCN(CC(=O)NCc3ccc(C(F)(F)F)cc3)CC2)cc1 [KKRE10200, (R)-2-(4-(2-hydroxy-3-(p-tolyloxy)propyl)piperazin-1-yl)-N-(4-(trifluoromethyl)benzyl)acetamide] | 43.7% | 30.9 ± 3.86% | 30.9% | – | – |
| Cc1ccc(OC[C@@H](O)CN2CCN(CC(=O)NCc3ccc(C(F)(F)F)cc3)CC2)cc1 [KKRE10201, (S)-2-(4-(2-hydroxy-3-(p-tolyloxy)propyl)piperazin-1-yl)-N-(4-(trifluoromethyl)benzyl)acetamide] | 55.4% | 25.4 ± 7.87% | 25.4% | – | – |
| O=C(CN1CCN(C[C@@H](O)COc2ccccc2)CC1)NCc1ccccc1 [KKRE10202, (R)-N-benzyl-2-(4-(2-hydroxy-3-phenoxypropyl)piperazin-1-yl)acetamide] | 21.4% | 0.84 ± 1.76% | – | – | – |
| O=C(CN1CCN(C[C@H](O)COc2ccccc2)CC1)NCc1ccccc1 [KKRE10203, (S)-N-benzyl-2-(4-(2-hydroxy-3-phenoxypropyl)piperazin-1-yl)acetamide] | 17% | 38 ± 6.42% | 38% | – | – |
| Cc1ccc(CNC(=O)CN2CCN(C[C@@H](O)COc3ccccc3)CC2)cc1 [KKRE10204, (R)-2-(4-(2-hydroxy-3-phenoxypropyl)piperazin-1-yl)-N-(4-methylbenzyl)acetamide] | 12.3% | 16.3 ± 12.9% | 57.5% | – | – |
| CC(C)Cc1cc(CNC(=O)CN2CCN(C[C@@H](O)COc3ccc(C(F)(F)F)cc3)CC2)nn1-c1ccccc1 [KKRE10210, (R)-2-(4-(2-Hydroxy-3-(4-(trifluoromethyl)phenoxy)propyl)piperazin-1-yl)-N-((5-isobutyl-1-phenyl-1H-pyrazol-3-yl)methyl)acetamide] | 67% | 77.5 ± 5.19% | – | 91.23% | 91.22 ± 1.77% |
| CC(C)c1cc(CNC(=O)CN2CCN(C[C@@H](O)COc3ccc(C(F)(F)F)cc3)CC2)nn1-c1ccccc1 [KKRE10211, (R)-2-(4-(2-hydroxy-3-(4-(trifluoromethyl)phenoxy)propyl)piperazin-1-yl)-N-((5-isopropyl-1-phenyl-1H-pyrazol-3-yl)methyl)acetamide] | 79% | 55.3 ± 6.53% | – | – | – |
| CC(C)Cc1cc(CNC(=O)CN2CCN(C[C@@H](O)COc3ccc(F)cc3)CC2)nn1-c1ccccc1 [KKRE10213, (R)-2-(4-(3-(4-Fluorophenoxy)-2-hydroxypropyl)piperazin-1-yl)-N-((5-isobutyl-1-phenyl-1H-pyrazol-3-yl)methyl)acetamide] | 77.4% | – | 64.7% | – | – |
| CC(C)Cc1cc(CNC(=O)CN2CCN(C[C@H](O)COc3ccc(F)cc3)CC2)nn1-c1ccccc1 [KKRE10214, (S)-2-(4-(3-(4-Fluorophenoxy)-2-hydroxypropyl)piperazin-1-yl)-N-((5-isobutyl-1-phenyl-1H-pyrazol-3-yl)methyl)acetamide] | 77.5% | 37.5 ± 5.31% | – | – | – |
| CC(C)Cc1cc(CNC(=O)CN2CCN(C[C@H](O)COc3ccc(C(F)(F)F)cc3)CC2)nn1-c1ccccc1 [KKRE10215, (S)-2-(4-(2-Hydroxy-3-(4-(trifluoromethyl)phenoxy)propyl)piperazin-1-yl)-N-((5-isobutyl-1-phenyl-1H-pyrazol-3-yl)methyl)acetamide] | 80.9% | 82.1 ± 3.81% | – | – | – |
| Cc1ccc(F)cc1-n1nc(CNC(=O)CN2CCN(C[C@@H](O)COc3ccc(C(F)(F)F)cc3)CC2)cc1CC(C)C [KKRE10216, (R)-N-((1-(5-fluoro-2-methylphenyl)-5-isobutyl-1H-pyrazol-3-yl)methyl)-2-(4-(2-hydoxy-3-(4-(trifluoromethyl)phenoxy)propyl)piperazin-1-yl)acetamide] | 77.4% | 71.4 ± 10.8% | – | – | – |
| CC(C)Cc1cc(CNC(=O)CN2CCN(C[C@@H](O)COc3ccc(C(F)(F)F)cc3)CC2)nn1-c1ccc(F)cc1 [KKRE10217, (R)-N-((1-(4-fluorophenyl)-5-isobutyl-1H-pyrazol-3-yl)methyl)-2-(4-(2-hydroxy-3-(4-(trifluoromethyl)phenoxy)propyl)piperazin-1-yl)acetamide] | 75.7% | 50.1 ± 10.7% | – | – | – |
| CC(C)Cc1cc(CNC(=O)CN2CCN(C[C@@H](O)COc3ccc(C(F)(F)F)cc3)CC2)nn1-c1cc(Cl)cc(Cl)c1 [KKRE10218, (R)-N-((1-(3,5-dichlorophenyl)-5-isobutyl-1H-pyrazol-3-yl)methyl)-2-(4-(2-hydroxy-3-(4-(trifluoromethyl)phenoxy)propyl)piperazin-1-yl)acetamide] | 73.5% | 76.1 ± 5.79% | – | – | – |
| CC(C)Cc1cc(CNC(=O)CN2CCN(C[C@H](O)COc3ccc(C(F)(F)F)cc3)CC2)nn1-c1ccc(F)cc1 [KKRE10219, (S)-N-((1-(4-fluorophenyl)-5-isobutyl-1H-pyrazol-3-yl)methyl)-2-(4-(2-hydroxy-3-(4-(trifluoromethyl)phenoxy)propyl)piperazin-1-yl)acetamide] | 74.1% | 57 ± 6.08% | – | – | – |
| CC(C)Cc1cc(CNC(=O)CN2CCN(C[C@H](O)COc3ccc(C(F)(F)F)cc3)CC2)nn1-c1cc(Cl)cc(Cl)c1 [KKRE10220, (S)-N-((1-(3,5-dichlorophenyl)-5-isobutyl-1H-pyrazol-3-yl)methyl)-2-(4-(2-hydroxy-3-(4-(trifluoromethyl)phenoxy)propyl)piperazin-1-yl)acetamide] | 35.8% | 41.4 ± 12.7% | – | – | – |
